Results: the supplement of paper PMC10307832

Columns and labels:
Experiment in all cases: relative viability (nuclei count vs DMSO), 5 days (fraction); higher = more cells survive
[1] = compound: C1/C(=C\C2=CC=CS2)/C(=O)/C(=C/C3=CC=CS3)/C1 + N=C(N)NC(=N)NCCc1ccccc1 [Phenformin] (partner 250 µM)
In short: (§1)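 For relative viability, nuclei counts in treated wells were divided by those in vehicle wells. Lung cancer cell lines had been pin-tool dosed in 1536-well plates the day after seeding and cultured for 5 days, then fixed and stained in one step (final 0.05% Triton X-100, 1% formaldehyde, 1 ug/ml Hoechst) and imaged at 4×. Doses were one drug alone or a fixed anchor-drug dose plus five library-drug doses (not always all listed) in √10 steps, and values are duplicate-plate medians.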

TPCA-1 + Crizotinib = compound: C1=CC(=CC=C1C2=CC(=C(S2)NC(=O)N)C(=O)N)F [TPCA-1] + C[C@@H](Oc1cc(-c2cnn(C3CCNCC3)c2)cnc1N)c1c(Cl)ccc(F)c1Cl [Crizotinib] (partner 1 µM)
In short: as §1

Lestaurtinib + Lapatinib = compound: C[C@]12O[C@H](C[C@]1(O)CO)n1c3ccccc3c3c4c(c5c6ccccc6n2c5c31)CNC4=O [Lestaurtinib] + CS(=O)(=O)CCNCc1ccc(-c2ccc3ncnc(Nc4ccc(OCc5cccc(F)c5)c(Cl)c4)c3c2)o1 [Lapatinib] (partner 2 µM)
In short: as §1

TPCA-1 + Luminespib = compound: C1=CC(=CC=C1C2=CC(=C(S2)NC(=O)N)C(=O)N)F [TPCA-1] + CCNC(=O)c1noc(-c2cc(C(C)C)c(O)cc2O)c1-c1ccc(CN2CCOCC2)cc1 [Luminespib] (partner 0.01 µM)
In short: as §1

| Cell Line | relative viability ([1]; first compound 0.2 µM) | relative viability ([1]; first compound 0.6325 µM) | relative viability ([1]; first compound 2 µM) | relative viability ([1]; first compound 6.325 µM) | relative viability ([1]; first compound 20 µM) | relative viability (TPCA-1 + Crizotinib; first compound 0.04 µM) | relative viability (TPCA-1 + Crizotinib; first compound 0.1265 µM) | relative viability (TPCA-1 + Crizotinib; first compound 0.4 µM) | relative viability (TPCA-1 + Crizotinib; first compound 1.265 µM) | relative viability (TPCA-1 + Crizotinib; first compound 4 µM) | relative viability (Lestaurtinib + Lapatinib; first compound 0.005 µM) | relative viability (Lestaurtinib + Lapatinib; first compound 0.01581 µM) | relative viability (Lestaurtinib + Lapatinib; first compound 0.05 µM) | relative viability (Lestaurtinib + Lapatinib; first compound 0.1581 µM) | relative viability (Lestaurtinib + Lapatinib; first compound 0.5 µM) | relative viability (TPCA-1 + Luminespib; first compound 0.04 µM) | relative viability (TPCA-1 + Luminespib; first compound 0.1265 µM) | relative viability (TPCA-1 + Luminespib; first compound 0.4 µM) | relative viability (TPCA-1 + Luminespib; first compound 1.265 µM) | relative viability (TPCA-1 + Luminespib; first compound 4 µM) |
| --- | --- | --- | --- | --- | --- | --- | --- | --- | --- | --- | --- | --- | --- | --- | --- | --- | --- | --- | --- | --- |
| NCI-H1651 | 0.352 | 0.372 | 0.446 | 0.26 | 0.323 | 0.853 | 0.841 | 0.892 | 0.812 | 0.747 | 0.756 | 0.93 | 0.715 | 0.636 | 0.211 | 0.839 | 0.979 | 0.835 | 0.915 | 1 |
| NCI-H1666 | 0.55 | 0.596 | 0.589 | 0.522 | 0.584 | 0.894 | 0.971 | 0.977 | 0.918 | 0.993 | 0.732 | 1.2 | 0.51 | 0.556 | 0.277 | 1.03 | 0.99 | 1.08 | 1.04 | 1.05 |
| NCI-H1734 | 0.415 | 0.403 | 0.443 | 0.363 | 0.412 | 0.706 | 0.584 | 0.704 | 0.642 | 0.575 | 1.09 | 1.22 | 0.808 | 0.895 | 0.199 | 0.192 | 0.201 | 0.221 | 0.19 | 0.162 |
| NCI-H1755 | 0.636 | 0.642 | 0.63 | 0.505 | 0.61 | 0.83 | 0.772 | 0.922 | 0.831 | 0.48 | 1.01 | 1.1 | 0.907 | 0.39 | 0.232 | 0.596 | 0.408 | 0.357 | 0.35 | 0.418 |
| NCI-H1792 | 0.514 | 0.273 | 0.67 | 0.287 | 0.322 | 1.01 | 0.952 | 1.02 | 0.928 | 0.584 | 0.779 | 1.05 | 0.56 | 0.653 | 0.244 | 0.429 | 0.237 | 0.446 | 0.501 | 0.367 |
| NCI-H1915 | 0.365 | 0.378 | 0.362 | 0.205 | 0.37 | 0.906 | 0.884 | 0.915 | 0.857 | 0.72 | 0.971 | 1.12 | 0.922 | 0.82 | 0.294 | 0.883 | 0.804 | 0.754 | 0.852 | 0.581 |
| NCI-H1944 | 0.232 | 0.207 | 0.2 | 0.18 | 0.182 | 1.18 | 1.03 | 1.02 | 1.02 | 0.682 | 0.924 | 0.733 | 0.691 | 0.58 | 0.571 | 0.872 | 0.663 | 0.71 | 0.626 | 0.513 |
| NCI-H1975 | 0.399 | 0.388 |  | 0.37 | 0.411 | 0.985 | 0.863 | 0.972 | 0.939 | 0.691 | 0.902 | 0.812 | 0.475 | 0.422 | 0.155 | 0.577 | 0.275 | 0.2 | 0.199 | 0.129 |
| NCI-H1993 | 0.514 | 0.518 | 0.494 | 0.42 | 0.517 | 0.868 |  | 1.02 | 0.851 | 0.849 | 0.805 | 0.848 | 0.678 | 0.595 | 0.602 | 0.694 | 0.688 | 0.783 | 1.29 | 0.669 |
| NCI-H2009 | 0.511 | 0.52 | 0.493 | 0.453 | 0.426 | 1.06 | 1.05 | 1.03 | 1.05 | 0.891 | 0.959 | 0.942 | 0.807 | 0.755 | 0.15 | 0.977 | 1.05 | 1.01 | 1.02 | 1.03 |
| NCI-H2023 | 0.414 | 0.488 | 0.439 | 0.396 | 0.383 | 0.75 | 0.667 | 0.658 | 0.636 | 0.512 | 0.987 | 0.753 | 0.503 | 0.22 | 0.0798 | 0.993 | 0.91 | 0.779 | 0.472 | 0.373 |
| NCI-H2085 | 0.81 | 0.791 | 0.839 | 0.619 | 0.644 | 0.921 | 0.793 | 0.872 | 0.765 | 0.78 | 0.812 | 0.89 | 0.871 | 0.667 | 0.433 | 0.427 | 0.408 | 0.574 | 0.473 | 0.45 |
| NCI-H2087 | 0.5 | 0.546 | 0.553 | 0.393 | 0.431 | 0.801 | 0.828 | 0.781 | 0.867 | 0.283 | 1.31 | 1.05 | 0.858 | 0.693 | 0.205 | 0.171 | 0.176 | 0.156 | 0.15 | 0.141 |
| NCI-H2126 | 0.549 | 0.551 | 0.566 | 0.483 | 0.536 | 1.08 | 0.93 | 1.07 | 0.945 | 0.951 | 0.821 | 0.901 | 0.613 | 0.81 | 0.552 | 0.94 | 0.947 | 0.984 | 0.797 | 0.676 |
| NCI-H2170 | 0.466 | 0.484 | 0.426 | 0.405 | 0.408 | 1.33 | 1.15 | 1.16 | 1.13 | 0.583 | 0.267 | 0.248 | 0.273 | 0.238 | 0.201 | 0.968 | 0.703 | 0.535 | 0.681 | 0.277 |
| NCI-H2228 | 0.422 | 0.297 | 0.369 | 0.335 | 0.357 | 0.589 | 0.489 | 0.487 | 0.364 | 0.277 | 0.892 | 0.95 | 0.376 | 0.281 | 0.256 | 0.174 | 0.139 | 0.124 | 0.131 | 0.117 |
